From paper PMC11879098, “Phycocyanobilin Binding and Specific Amino Acid Residues Near The Chromophore Contribute To Orange Light Perception By The Dualchrome Phytochrome Region” (Plant and Cell Physiology, 2024) come the findings set out here.

The target in one test is T1, AtPhyB (Arabidopsis thaliana, UniProt P14713).
T1 construct: gene PHYB; His-tagged, E. coli C41, band about 70 kDa, so a truncated photosensory region
T1 sequence (P14713 1-624 limits assumed): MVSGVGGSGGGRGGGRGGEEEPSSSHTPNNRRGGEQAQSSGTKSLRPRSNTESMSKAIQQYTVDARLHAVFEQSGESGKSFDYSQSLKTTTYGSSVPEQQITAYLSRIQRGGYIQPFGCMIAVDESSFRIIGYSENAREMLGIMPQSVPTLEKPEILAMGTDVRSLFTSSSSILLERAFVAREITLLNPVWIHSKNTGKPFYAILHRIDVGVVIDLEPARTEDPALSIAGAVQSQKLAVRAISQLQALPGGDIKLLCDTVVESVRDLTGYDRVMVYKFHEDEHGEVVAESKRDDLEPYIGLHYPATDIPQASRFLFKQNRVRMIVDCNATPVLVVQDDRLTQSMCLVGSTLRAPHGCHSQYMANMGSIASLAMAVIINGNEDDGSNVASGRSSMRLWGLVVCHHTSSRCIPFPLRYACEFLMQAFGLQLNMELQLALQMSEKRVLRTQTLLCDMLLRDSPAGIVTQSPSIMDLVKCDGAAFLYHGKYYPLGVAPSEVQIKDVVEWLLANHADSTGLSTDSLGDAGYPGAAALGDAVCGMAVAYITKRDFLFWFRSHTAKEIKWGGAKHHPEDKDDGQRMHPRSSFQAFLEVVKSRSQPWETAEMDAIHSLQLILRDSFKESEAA
Briefly: co-expression with SyHO1 and ΔN_PpPcyA in E. coli, UV-vis absorption, Zn fluorescence, acid denaturation. It counts as binding. Particulars: covalent; pH 7.5.

Test [1] addresses T2, PpDUC1-N (dualchrome 1 phytochrome region) (Pycnococcus provasolii, UniProt A0A830HT85).
T2 construct: gene PPROV_000692100; N-terminal phytochrome region (includes GAF and PHY domains) of the phytochrome-cryptochrome fusion; His-tagged, E. coli C41, about 75 kDa
Kind of test: expression in PΦB-producing E. coli, UV-vis absorption. The class given is binding. Particulars: covalent; difference spectrum; possibly data of Makita et al. 2021 shown again.

T2 sequence (A0A830HT85 entry or part of it): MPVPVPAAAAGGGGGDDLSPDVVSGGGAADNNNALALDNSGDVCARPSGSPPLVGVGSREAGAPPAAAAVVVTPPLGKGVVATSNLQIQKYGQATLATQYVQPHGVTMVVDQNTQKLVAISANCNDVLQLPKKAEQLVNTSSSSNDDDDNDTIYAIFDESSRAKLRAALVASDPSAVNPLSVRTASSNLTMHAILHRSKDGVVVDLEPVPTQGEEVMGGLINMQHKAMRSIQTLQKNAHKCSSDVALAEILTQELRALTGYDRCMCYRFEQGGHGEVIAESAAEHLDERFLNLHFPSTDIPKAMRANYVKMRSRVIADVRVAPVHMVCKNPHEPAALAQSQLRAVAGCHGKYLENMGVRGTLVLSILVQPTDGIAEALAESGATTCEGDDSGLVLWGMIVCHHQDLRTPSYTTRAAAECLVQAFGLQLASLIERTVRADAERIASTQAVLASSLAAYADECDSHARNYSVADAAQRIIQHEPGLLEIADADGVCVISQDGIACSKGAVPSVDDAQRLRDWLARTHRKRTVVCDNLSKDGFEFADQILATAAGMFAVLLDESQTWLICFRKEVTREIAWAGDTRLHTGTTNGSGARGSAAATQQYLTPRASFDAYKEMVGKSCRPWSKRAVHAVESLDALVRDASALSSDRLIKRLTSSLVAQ

Regarding `CC=C1C(=Cc2[nH]c(C=C3N=C(C=C4NC(=O)C(CC)=C4C)C(C)=C3CCC(=O)O)c(CCC(=O)O)c2C)NC(=O)C1C` (centres unmarked) [PCB], at AtPhyB, the “co-expression with SyHO1 and ΔN_PpPcyA in E. coli, UV-vis absorption, Zn fluores” value is “difference spectrum of AtPhyB coexpressed with ΔN_PpPcyA was nearly identical to that of PCB-binding AtPhyB”.
Take `C=CC1=C(C)C(=CC2=NC(=Cc3[nH]c(C=C4NC(=O)C(C)C4=CC)c(C)c3CCC(=O)O)C(CCC(=O)O)=C2C)NC1=O` (centres unmarked) [PΦB]: the “expression in PΦB-producing E. coli, UV-vis absorption” value in test [1] was “difference spectrum of PpDUC1-N purified from PCB-producing and PΦB-producing E. coli”.
